# Test results taken from patent publication US10363230B2, “6-shogaol derivatives and activities thereof” (North Carolina Agricultural and Technical State University, priority 2017, dated 2019).
# Values joined by “and” are separate entries in the source; they are usually repeats but may differ in a detail not shown here. Equal values may be shown once.
# Tested on: not listed separately
# Assay: Biotransformation of xenobiotics in zebrafish embryos (LC/MS)
# Format: in vivo
# Conditions: 5 μM in incubation medium, 8 hpf to 24 hpf
# Protocol: Fifty zebrafish embryos at the 8 hour-post-fertilization (hpf) stage were incubated at 28.5° C. in 0.3× Danieau's solution (19.3 mM NaCl, 0.23 mM KCl, 0.13 mM MgSO4, 0.2 mM Ca(NO3)2, 1.7 mM HEPES, pH 7.0) with or without 5 μM 18 and 25-27, respectively. At 24 hpf, embryos were dechorionated manually and the chorions were carefully removed one by one from the culture medium. The zebrafish embryos were harvested and kept at −80° C. till analyzed by LC/MS.
# 200 μL Sodium acetate buffer solution (pH 5.0) was added to 50 zebrafish embryos. Samples were homogenized for 90 s by an Omni Bead Ruptor Homogenizer (Kennesaw, Ga., United States of America). 10 μL 10% ascorbic acid and 300 μL sodium acetate buffer were added to the homogenates. The mixture was incubated in the presence of β-glucuronidase (250 U) and sulfatase (3 U) at 37° C. for 45 min, and then 600 μL MeOH with 1% acetic acid was added. The resulting mixture was vortexed for 30 s and then centrifuged at 17000 g for 10 min. The supernatant was removed and evaporated under a gentle stream of nitrogen. The residue was reconstituted in 150 μL 90% MeOH with 0.2% acetic acid (AA), and 10 μL was analyzed directly by LC/MS.
# (§1) LC/MS analysis was carried out with a Thermo-Finnigan Spectra System, which consisted of an Accela high speed MS pump, an Accela refrigerated autosampler, and an LCQ Fleet ion trap mass detector (Thermo Electron, San Jose, Calif., United States of America) incorporated with an electrospray ionization (ESI) interface. A Gemini-NX C18 column (150 mm×4.6 mm i.d., 5 μm; Phenomenex, Torrance, Calif., United States of America) was used for separation at a flow rate of 0.3 mL/min. The column was eluted with 100% A (5% aqueous methanol with 0.2% formic acid) for 1 min, followed by linear increases in B (95% aqueous methanol with 0.2% formic acid) to 55% from 1 to 4 min, to 85% from 4 to 25 min, then to 100% B from 25 to 30 min, and then with 100% B from 30 to 35 min. The column was then re-equilibrated with 100% A for 5 min. The LC eluent was introduced into the ESI interface. The positive ion polarity mode was set for the ESI source with the voltage on the ESI interface maintained at approximately 4.6 kV. Nitrogen gas was used as the sheath gas and auxiliary gas. Optimized source parameters, including capillary temperature (260° C.), sheath gas flow rate (31 arbitrary units), auxiliary gas flow rate (16 units), tube lens (34 V), and capillary voltage 9 V, were tuned using authentic samples. The collision-induced dissociation (CID) was conducted with an isolation width 2 Da and normalized collision energy of 35 for MS^2. The mass range was measured from 100 to 800 m/z. Data acquisition was performed with Xcalibur version 2.0 (Thermo Electron, San Jose, Calif., United States of America).
row,Cysteine conjugates (metabolites) detected in zebrafish embryos,Structure (SMILES)
1,conjugate 35 was predominantly present,CCCCC/C=C/C(=O)/C=C/c1ccc(O)c(OC)c1 [Compound 18]
2,"Three conjugates 37, 37b, and 38",CCCCC/C=C/C(=O)/C=C/c1ccc(O)c(O)c1 [Compound 26]

row,Structure (SMILES),Cysteine conjugates (metabolites) detected in zebrafish embryos
1,CCCCCCCC(=O)CCc1ccc(O)c(O)c1 [Compound 25],conjugates 37 and 37b were exclusively identified

# Tested on: Nrf2
# Assay: Nrf2 reporter activity by Tg(gstp1:GFP) fluorescence in transgenic zebrafish embryos
# Format: in vivo
# Conditions: olfactory epithelia, 24-hour treatment from 1 dpf to 2 dpf, 5 μM (FIG. 2 legends), ratio to DMSO control, mean ± SD, at least 10 embryos
# Protocol: Zebrafish AB transgenic strains Tg(gstp1:GFP) were maintained in a Pentair Aquatic Ecosystem (Apopka, Fla., United States of America) fish housing unit with 14 h light/10 h dark cycle (see Tsujita, T., Li, L., Nakajima, H., Iwamoto, N., Nakajima-Takagi, Y., Ohashi, K., Kawakami, K., Kumagai, Y., Freeman, B. A., Yamamoto, M., and Kobayashi, M. (2011) “Nitro-fatty acids and cyclopentenone prostaglandins share strategies to activate the Keap1-Nrf2 system: a study using green fluorescent protein transgenic zebrafish.” Genes Cells 16, 46-57). The fish embryos were maintained at 28.5° C. in 0.3× Danieau's solution (19.3 mM NaCl, 0.23 mM KCl, 0.13 mM MgSO4, 0.2 mM Ca(NO3)2, 1.7 mM HEPES, pH 7.0) containing 30 μg/ml phenylthiourea (PTU) to inhibit pigmentation. Tg(gstp1:GFP) cross with AB wild-type strain fluorescence embryos were used for the experiment. Zebrafish embryos were washed, dechorionated and anaesthetized before observations, and fluorescence imaging for analysis.
# Transgenic zebrafish embryos at 1 day-post-fertilization (dpf) were dechorionated and placed in Petri dishes containing different chemicals diluted in 0.3× Danieau's solution containing PTU. The chemical stock was dissolved in DMSO at 5 mM concentration.
# An Olympus MVX10 Fluorescence Macroscope (Olympus, Center Valley, Pa., United States of America) equipped with a Hamamatsu C9300-221 high-speed digital CCD camera (Hamamatsu City, Japan) was used for fluorescence microscopy. Tg(gstp1:GFP) fluorescent embryos were anaesthetized in tricaine and imaged at 2 dpf. MetaMorph Basic software (Olympus, Center Valley, Pa., United States of America) was used for image acquisition and analysis.
# The fluorescence intensity of the olfactory neural epithelia was quantitated using MetaMorph Basic software. In brief, GFP expression in the olfactory regions of Tg(gstp1:GFP) embryos treated with various chemicals was measured after 24-hour treatment from 1 dpf to 2 dpf. The GFP induction was detectable by fluorescence signal at the area of the olfactory epithelia in the anterior of the head region, the intensity was measured using an area of a circle of 60 pixel diameter of the fluorescence olfactory epithelia subtracted by a background non-fluorescence area next to the zebrafish embryo. Both the left and right olfactory epithelia were measured to give an average fluorescence value. The values are an average of measurements from at least 10 embryos.
row,Structure (SMILES),"Ratio/CTL, Tg(gstp1:GFP) fluorescence signal (times higher than vehicle)"
1,"CCCCC/C=C/C(=O)CCc1ccc(O)c(OC)c1 [Compound 1, [6]-shogaol, reference compound]",2.40 ± 0.54
2,"CCCCCCC/C=C/C(=O)CCc1ccc(O)c(OC)c1 [Compound 2, reference compound]",1.67 ± 0.55
3,"CCCCCCCCC/C=C/C(=O)CCc1ccc(O)c(OC)c1 [Compound 3, reference compound]",1.53 ± 0.53
4,CCCCCC=CC(O)CCc1ccc(O)c(OC)c1 (stereo not shown) [Compound 4],1.13 and 1.13 ± 0.21
5,CCCCCCCC(=O)CCc1ccc(O)c(OC)c1 [Compound 5],1.27 and 1.27 ± 0.29
6,CCCCCC(CC(=O)CCc1ccc(O)c(OC)c1)SCC(N)C(=O)O (stereo not shown) [Compound 6],1.06 ± 0.20
7,CCCCCC(CC(=O)CCc1ccc(O)c(OC)c1)SCC(NC(C)=O)C(=O)O (stereo not shown) [Compound 7],1.04 ± 0.05
8,CCCCCC(CC(=O)CCc1ccc(O)c(OC)c1)SC (stereo not shown) [Compound 8],1.16 ± 0.47
9,CCCCCC(CC(=O)CCc1ccc(O)c(OC)c1)OC (stereo not shown) [Compound 10],0.96 ± 0.24
10,"CCCCC[C@H](O)CC(=O)CCc1ccc(O)c(OC)c1 [Compound 11, [6]-gingerol, reference compound]",1.87 and 1.87 ± 0.51
11,"CCCCCCC[C@H](O)CC(=O)CCc1ccc(O)c(OC)c1 [Compound 12, reference compound]",1.65 and 1.65 ± 0.29
12,"CCCCCCCCC[C@H](O)CC(=O)CCc1ccc(O)c(OC)c1 [Compound 13, reference compound]",1.29 and 1.29 ± 0.40
13,CCCCCC(CC(O)CCc1ccc(O)c(OC)c1)SCC(N)C(=O)O (stereo not shown) [Compound 15],1.08 ± 0.65
14,CCCCCC(CC(O)CCc1ccc(O)c(OC)c1)SCC(NC(C)=O)C(=O)O (stereo not shown) [Compound 16],0.78 ± 0.12
15,CCCCCC(CC(O)CCc1ccc(O)c(OC)c1)SC (stereo not shown) [Compound 17],0.72 ± 0.14
16,CCCCCCCC(=O)/C=C/c1ccc(O)c(OC)c1 [Compound 19],3.29 and 3.29 ± 0.35
17,CCCCC/C=C/C(=O)/C=C/c1cc(O)c(O)c(OC)c1 [Compound 20],1.26 and 1.26 ± 0.14
18,CCCCC/C=C/C(=O)/C=C/c1cc(OC)c(O)c(C(F)(F)F)c1 [Compound 21],2.18 and 2.18 ± 0.53
19,CCCCC/C=C/C(=O)/C=C/c1cccc(C(F)(F)F)c1 [Compound 22],1.28 and 1.28 ± 0.10
20,CCCCC/C=C/C(=O)/C=C/c1cccc(C(F)(F)F)c1F [Compound 23],1.63 and 1.63 ± 0.17
21,CCCCC/C=C/C(=O)/C=C/c1ccccc1C(F)(F)F [Compound 24],1.55 and 1.55 ± 0.67

# Same assay, conditions: olfactory epithelia, 24-hour treatment from 1 dpf to 2 dpf, 5 μM (FIG. 2 legends), ratio to DMSO control, mean ± SD, at least 10 embryos; listed as 6S
row,Structure (SMILES),"Ratio/CTL, Tg(gstp1:GFP) fluorescence signal (times higher than vehicle)"
1,"CCCCC/C=C/C(=O)CCc1ccc(O)c(OC)c1 [Compound 1, [6]-shogaol, reference compound]",2.40

# Same assay, conditions: olfactory epithelia, 24-hour treatment from 1 dpf to 2 dpf, 5 μM (FIG. 2 legends), ratio to DMSO control, mean ± SD, at least 10 embryos; listed as 8S
row,Structure (SMILES),"Ratio/CTL, Tg(gstp1:GFP) fluorescence signal (times higher than vehicle)"
1,"CCCCCCC/C=C/C(=O)CCc1ccc(O)c(OC)c1 [Compound 2, reference compound]",1.67

# Same assay, conditions: olfactory epithelia, 24-hour treatment from 1 dpf to 2 dpf, 5 μM (FIG. 2 legends), ratio to DMSO control, mean ± SD, at least 10 embryos; listed as 10S
row,Structure (SMILES),"Ratio/CTL, Tg(gstp1:GFP) fluorescence signal (times higher than vehicle)"
1,"CCCCCCCCC/C=C/C(=O)CCc1ccc(O)c(OC)c1 [Compound 3, reference compound]",1.53

# Tested on: not listed separately
# Assay: Cysteine conjugates in mouse urine after oral gavage (LC/MS)
# Format: in vivo
# Conditions: oral gavage 200 mg/kg, urine collected in 24 h
# Protocol: as §1, with “Optimized source parameters, including capillary temperature (260° C.), sheath gas flow rate (31 arbitrary units), auxiliary gas flow rate (16 units), tube lens (34 V), and capillary voltage 9 V, were tuned using authentic samples. The collision-induced dissociation (CID) was conducted with an isolation width 2 Da and normalized collision energy of 35 for MS^2.” left out, “Data acquisition was performed with Xcalibur version 2.0 (Thermo Electron, San Jose, Calif., United States of America).” left out
# Enzymatic deconjugation of mouse urine was performed as described previously with slight modifications. […] The resulting suspension was centrifuged at 17,000 g for 5 min, and 10 μL of supernatant was analyzed directly by LC/MS.
row,Cysteine conjugates (metabolites) detected in mouse urine,Structure (SMILES)
1,conjugate 35 was predominantly present,CCCCC/C=C/C(=O)/C=C/c1ccc(O)c(OC)c1 [Compound 18]
